Patent US20150307573A1, “CYLINDRINS AS ETIOLOGIC AGENTS OF AMYLOID DISEASES” (The Regents of the University of California, priority 2012, published 2015)
Read-outs that look alike come from different tables or passages of the source. Where no end group is shown, it is not given here.

Assays:
[1] = tested on: HeLa, HEK293, PC-12 and SH-SY5Y cells
OC antibody = experiment: Immuno-dot blot with fibril-specific antibodies OC; type: binding
Experimental: (§1) Briefly, a small aliquot of cylindrin peptide samples, at a concentration of a few mg/mL, were spotted onto a nitrocellulose membrane (Trans-Blot, Bio-Rad, Hercules, Calif.). After blocking with 10% fat free milk in TBST buffer (50 mM Tris, 150 mM NaCl, 0.05% Tween20), the membranes were incubated with polyclonal antibody or monoclonal antibody (˜1:250 dilution in 5% fat free milk, TBST buffer) at room temperature for 1 hour. The membranes were washed three times in TBST buffer before incubating with anti-rabbit HRP-linked antibody (1:5000 dilution in 5% fat free milk, TBST buffer) (Invitrogen, Carlsbad, Calif.) at room temperature for 1 hour. After washing the membranes three times in TBST buffer, the films were developed following the protocol as described in the Kit (Thermo Scientific Pierce ECL Western Blotting Substrate, #32209). Positive controls for A11 and OC were prefibrillar oligomers and fibrils, respectively (14).

polyclonal antibody A11 = experiment: Immuno-dot blot with oligomer-specific antibody A11; type: binding
Experimental: as §1

[2] = Membrane leakage (liposome calcein dye-release) experiments; type: biochemical; conditions: for maximum leakage (calcein release): 5, 20, 50 μM peptide, up to 30 hours; for liposome integrity / dye release: FIG. 8
Experimental: Calcein-containing LUVs were prepared as described previously (19), with minor modifications. 1-palmitoyl-2-oleoyl-sn-glycero-3-phosphocholine (POPC) and 1-palmitoyl-2-oleoyl-sn glycero-3-phospho-L-glycerol (POPG) were obtained from Avanti Polar Lipids (Alabaster, Ala.). Mixtures of POPC and POPG in a 7:3 molar ratio were dissolved in 1:1 chloroform:methanol. The solvent was evaporated under dry nitrogen gas to yield a lipid film that was further dried under vacuum for at least 24 hours to remove any residual organic solvent. The film was then hydrated in 70 mM calcein (Sigma Aldrich, St. Louis, Mo.) and 10 mM Tris-HCl (pH 7.4) at a lipid concentration of 5 mM. The suspensions were subjected to 10 freeze-thaw cycles of temperatures of −80 and 50° C., followed by extrusion through two 0.2 μm pore size filters (Whatman, Florham Park, N.J.). Non-encapsulated calcein was separated from calcein-filled LUVs by size exclusion using a Sephadex G-75 (GE Healthcare, Piscataway, N.J.) equilibrated in buffer (10 mM Tris-HCl pH 7.4, 100 mM sodium chloride). The calcein-containing LUVs were concentrated to 3-5 mM and stored at 4° C. Phospholipid content and concentrations of the LUVs were determined by RP-HPLC using 100% Methanol and 100 mM TEAC (tetraethylammonium chloride) pH 7.8 as the solvent and a C18 column. Diameter of LUVs were determined using a Microtrac UPA 150 (York, Pa.). […] LUVs were used for experiments within 5 days of preparation.
Pure, lyophilized K11V-TR and K11VV2L-TR peptides were solubilized in water. Three different stock solutions were made at concentrations of 0.2, 0.8, and 2 mM. 5 uL of each peptide stock solution was added to a well containing 195 uL of 7:3 calcein-containing POPC:POPG LUVs in a buffer (10 mM Tris-HCL pH 7.4, 100 mM sodium chloride). Dye leakage was measured using a SpectraMax5 (Molecular Devices, Sunnyvale, Calif.) at 485 nm excitation and a 535 nm emission. Measurements were taken every 10 minutes for 30 hours. Each well contains a final LUV concentration of 100 μM with final K11V-TR and K11VV2L-TR construct concentrations of 5, 20, and 50 μM. Synthetic human Islet Amyloid Polypeptide (hIAPP) residues 8-37, purchased from CS-Bio (Menlo Park, Calif.), was used as a positive control; since hIAPP has been previously shown to interact and disrupt membranes (15, 16). Lyophilized hIAPP was dissolved in 100% hexafluoro-2-propanol (HFIP) and put under vacuum to evaporate the HFIP. hIAPP was then reconstituted in water at 0.2 mM, filtered using a 0.2 μm filter, and added to six wells containing 100 μM Calcein-containing LUVs to a final concentration of 5 μM hIAPP. Fluorescence at a given time point was normalized as described previously (20), using the equation: Fnormalized=(Ft−Fmin)/(Fmax−Fmin) Ft is the measured fluorescence intensity, Fmin the fluorescence of 100 μM calcein-containing LUVs alone, and Fmax is the maximum fluorescence determined by incubation of 100 μM LUVs in the presence of 0.5% Triton X-100.

in vitro = conditions: human (HeLa, HEK293, SH-SY5Y); rat (PC-12)
[3] = tested on: Hela; ES derived motor neurons (GFP+); experiment: Toxicity assay of SOD1 cylindrins (MTT, visual inspection of GFP+ neuron morphologies); type: cell-based
[4] = target: the molecule itself; experiment: native nanoelectrospray mass spectrometry; self-association of identical chains
Experimental: The cylindrin peptide abbreviation (see Table 1) is labeled for the respective mass spectrum in the upper right corner of the inset. (A) Mass spectrum of cylindrin peptide, K11VV2L dissolved directly in 200 mM ammonium acetate buffer. Expansion of the hexameric oligomers with n-1 and n-2 dissociation products (see for review (13)), shown in inset. […] The n-1 (pentamer) and n-2 (tetramer) dissociated species are located under the respective label, corresponding to ions with +4 and +3 charge states, respectively. The 1231.76 ion corresponds to the K11VV2L peptide chain with a +1 charge state. (B) Native mass spectrum of K11V-TR purified by size exclusion chromatography (see methods for details). […] The labeled +2 and +6 charge state ions correspond to one and four peptide chains, respectively. […]
One to five milligrams of lyophilized peptide was dissolved in 1 mL of water and filtered through a 0.22 or 0.45 μm Centrex MF filter (Whatman, Florham Park, N.J.). […] Absorbance at 220 nm and 280 nm were recorded using a Waters 2487 dual λ absorbance detector (Waters, Milford, Mass.). Protein standards were monitored by absorbance at 280 nm, and cylindrin peptides monitored by absorbance at 220 nm.

[5] = target: the molecule itself; experiment: X-ray crystal structure; self-association of identical chains
Experimental: The SOD1-derived peptide […] (SEQ ID NO:61) was crystallized and data collection was performed as follows: The peptide was crystallized via hanging-drop vapor diffusion at 18° C. The peptide was dissolved at 50 mg/mL in 50 mM Tris, then was mixed 1:1 with the reservoir solution: 0.2M Na Citrate pH 5, 13% PEG 6000. The peptide grew into needle-shaped crystals in 2-3 days. For data collection, hundreds of crystals were mounted because of their quick decay. However, two larger crystals were able to be used to collect complete data sets, by diffracting from several points along the length of the crystals. Diffraction from iodine-soaked crystals was used to obtain phases by SIRAS.

Molecule: GDVIEV [G6V fibrils]
- toxicity of fibrils ([1]; fibrils, in contrast to oligomeric solutions): no toxicity

Molecule: GKLKVLGDVIEVGGKLKVLGDVIEV [K11V-TR fibrils] (not fully specified)
- recognition by OC antibody (OC antibody): recognized only by the OC antibody
- recognition by OC antibody (OC antibody; listed as fibrils of K11V-TR): immunoreactive
- recognition by A11 antibody (polyclonal antibody A11): recognized only by the OC antibody

Molecule: GKLKVLGDVIEVGGKLKVLGDVIEV [Peptide K11V-TR, tandem repeat of K11VV2L, double glycine linker, additional N-terminal glycine]
- maximum leakage (calcein release) ([2]; 100 μM LUVs): 10%
- liposome integrity / dye release [2]: did not exhibit this trend
- cell toxicity ([1]; different peptide concentrations, HEK293, HeLa, PC12, SH-SY5Y, FIG. 7): concentration dependent cell toxicity
- cell toxicity (cell viability) ([1]; final concentration 100 μM, four mammalian cell lines, FIG. 1F): toxic
- recognition by A11 antibody (polyclonal antibody A11): recognized by A11

Molecule: GKVKVLGDVIEVGGKVKVLGDVIEV [K11V-TR (wild-type)]
- maximum leakage (calcein release) ([2]; 100 μM LUVs): 10%

Molecule: H-GKLKWLGDVIEVGGKLKWLGDVIEV-OH [Peptide K11VV4W-TR]
- viability at 24 h, 100 µM (in vitro): ~100%

Molecule: KLKVLGDVIEV [Peptide K11VV2L]
- recognition by A11 antibody (polyclonal antibody A11): recognized by A11

Molecule: KVKVWGSIGKL [KVKVWGSIKGL]
- toxicity to cultured cells ([3]; peptide (cylindrin)): toxic
- toxicity to cultured cells ([3]; peptide amyloid-like fibrils): non-toxic

Molecule: cylindrin: six-stranded anti-parallel barrel oligomer of K11V (KVKVLGDVIEV)
- recognition by A11 antibody (polyclonal antibody A11): recognizes

Molecule: hIAPP8-37: Synthetic human Islet Amyloid Polypeptide residues 8-37, positive control (ATQRLANFLVHSSNNFGAILSSTNVGSNTY; ends and bridges not checked; UniProt P10997 41-70, looked up, fragment) [reference compound]
- leakage (calcein release) ([2]; 5 μM positive control, 100 μM LUVs): up to 60%
- liposome integrity / dye release [2]: clearly diminished liposome integrity leading to dye release

B1: K11VV2L cylindrin peptide (KLKVLGDVIEV), oligomeric solution (peptide)
peptide: KLKVLGDVIEV
notes: Forms hexameric oligomers (native MS, crystal structure 3SGP); also called single segment; alphaB crystallin residues 90-100 mutant V91L
- binding result [4]: binds

B2: K11V-TR tandem repeat cylindrin peptide (tandem repeat of K11VV2L), oligomeric solution (peptide)
peptide: GKLKVLGDVIEVGGKLKVLGDVIEV
notes: Trimer of 25-residue chains (SEC, native MS, crystal structure 3SGR); also called K11VV2L-TR; tandem repeat segment
- binding result [4]: binds

B3: SOD1-derived peptide KVKVWGSIKGL, SOD1(29-39) P29K (peptide)
peptide: KVKVWGSIKGL
notes: Open-ended oligomer (corkscrew), 16 strands per turn, any number of peptide units; also called SOD1 cylindrin; kv11
- binding result [5]: binds
